Tests used:
MV-IC323-EGFP = settings: for IC50: 72 h
wild type MV G954 = settings: read-out: IC50, inhibition of MV entry (plaque reduction); wt MV G954, Vero-SLAM cells
Method: Vero-SLAM cell monolayers were infected with wild type MV G954 in the presence MV HRC peptides at the indicated peptide concentrations. Viral entry was assessed by plaque reduction assay. […] Each point represents the mean (±standard error) of four experiments. […] Vero-SLAM cell monolayers were infected with wild type MV-IC323-EGFP. After 90 minutes, medium with the indicated peptide concentrations was added. Viral spread was assessed by using a fluorescent readout of the EGFP after 72 hours. […] Each point represents the mean (±standard deviation) of a representative experiment.
Vero-SLAM monolayer cells were incubated with 40-50 PFU of wild type MV G954 in the presence of various concentrations of peptides. After 90 minutes, 2× minimal essential medium containing 10% FBS was mixed with 1% avicell and added to the dishes. The plates were then incubated at 37° C. for 72 h. After removing the medium overlay, the cells were immunostained for plaque detection. The number of plaques in the control (no peptide) and experimental wells were counted under a dissecting stereoscope.
The inhibitory activities of MV HRC 1, MV HRC 2, MV HRC 3 and MV HRC 4 (FIG. 1) against wt MV G954 were assessed in plaque reduction assays (FIG. 2A).

[1] = rat, in vivo
[2] = molecular target: HPIV3 envelope glycoproteins (Human parainfluenza 3 virus, UniProt P06828); type: cell-based, Human parainfluenza virus type 3; settings: fusion assay with HPIV3 envelope glycoproteins; for IC50: read-out: IC50 nM, in vitro efficacy; for IC90: read-out: IC90 nM, in vitro efficacy
[3] = in vivo; cited from earlier work

HPIV3 envelope glycoproteins, sequence (P06828 110-539 limits assumed): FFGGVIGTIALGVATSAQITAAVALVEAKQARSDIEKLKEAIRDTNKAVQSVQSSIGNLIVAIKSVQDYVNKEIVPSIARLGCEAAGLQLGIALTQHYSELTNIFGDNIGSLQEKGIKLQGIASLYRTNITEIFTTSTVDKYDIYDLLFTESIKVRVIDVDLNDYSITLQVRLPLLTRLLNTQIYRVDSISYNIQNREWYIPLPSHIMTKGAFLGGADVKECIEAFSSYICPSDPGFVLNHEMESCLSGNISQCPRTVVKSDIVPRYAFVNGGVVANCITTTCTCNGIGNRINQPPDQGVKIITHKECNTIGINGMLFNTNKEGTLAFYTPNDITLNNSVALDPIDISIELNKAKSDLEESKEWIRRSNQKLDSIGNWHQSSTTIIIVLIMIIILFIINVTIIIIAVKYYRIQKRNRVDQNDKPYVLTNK
HPIV3 envelope glycoproteins, sequence (P06828 19-109 partner limits assumed): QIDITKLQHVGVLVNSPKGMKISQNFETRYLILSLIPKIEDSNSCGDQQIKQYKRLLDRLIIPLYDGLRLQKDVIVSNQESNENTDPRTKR

Row | Molecule | IC50 [2] | IC90 [2] | other results
1 | CC[C@H](C)[C@H](NC(=O)[C@H](C)NC(=O)[C@H](CC(N)=O)NC(=O)CNC(=O)[C@H](CC(C)C)NC(=O)[C@H](CC(N)=O)NC(=O)[C@@H](NC(=O)CNC(=O)[C@@H](NC(=O)[C@H](CC(=O)O)NC(=O)[C@H](CC(C)C)NC(=O)[C@H](CCCNC(=N)N)NC(=O)[C@H](CCC(=O)O)NC(=O)[C@H](CC(C)C)NC(=O)[C@H](CO)NC(=O)[C@@H](NC(=O)[C@@H]1CCCN1C(=O)[C@@H]1CCCN1C(C)=O)[C@@H](C)CC)C(C)C)[C@@H](C)O)C(=O)N[C@@H](C)C(=O)N[C@@H](CCCCN)C(=O)N[C@@H](CC(C)C)C(=O)N[C@@H](CCC(=O)O)C(=O)N[C@@H](CC(=O)O)C(=O)N[C@@H](C)C(=O)N[C@@H](CCCCN)C(=O)N[C@@H](CCC(=O)O)C(=O)N[C@@H](CC(C)C)C(=O)N[C@@H](CC(C)C)C(=O)N[C@@H](CCC(=O)O)C(=O)N[C@@H](CO)C(=O)N[C@@H](CO)C(=O)N[C@@H](CC(=O)O)C(=O)N[C@@H](CCC(N)=O)C(=O)N[C@H](C(=O)N[C@@H](CC(C)C)C(=O)N[C@@H](CCCNC(=N)N)C(=O)NCC(=O)N[C@@H](CO)C(=O)NCC(=O)N[C@@H](CO)C(=O)NCC(=O)N[C@@H](CSCC(N)=O)C(N)=O)[C@@H](C)CC [MV HRC1] | – | – | reduction of viral infection (fluorescence level) (MV-IC323-EGFP): neither MV HRC 1 nor MV HRC 3 reduced viral infection; IC50 (wild type MV G954): ~7000 nM
2 | CC[C@H](C)[C@H](NC(=O)[C@H](C)NC(=O)[C@H](CC(N)=O)NC(=O)CNC(=O)[C@H](CC(C)C)NC(=O)[C@H](CC(N)=O)NC(=O)[C@@H](NC(=O)CNC(=O)[C@@H](NC(=O)[C@H](CC(=O)O)NC(=O)[C@H](CC(C)C)NC(=O)[C@H](CCCNC(=N)N)NC(=O)[C@H](CCC(=O)O)NC(=O)[C@H](CC(C)C)NC(=O)[C@H](CO)NC(=O)[C@@H](NC(=O)[C@@H]1CCCN1C(=O)[C@@H]1CCCN1C(C)=O)[C@@H](C)CC)C(C)C)[C@@H](C)O)C(=O)N[C@@H](C)C(=O)N[C@@H](CCCCN)C(=O)N[C@@H](CC(C)C)C(=O)N[C@@H](CCC(=O)O)C(=O)N[C@@H](CC(=O)O)C(=O)N[C@@H](C)C(=O)N[C@@H](CCCCN)C(=O)N[C@@H](CCC(=O)O)C(=O)N[C@@H](CC(C)C)C(=O)N[C@@H](CC(C)C)C(=O)N[C@@H](CCC(=O)O)C(=O)N[C@@H](CO)C(=O)N[C@@H](CO)C(=O)N[C@@H](CC(=O)O)C(=O)N[C@@H](CCC(N)=O)C(=O)N[C@H](C(=O)N[C@@H](CC(C)C)C(=O)N[C@@H](CCCNC(=N)N)C(=O)NCC(=O)N[C@@H](CO)C(=O)NCC(=O)N[C@@H](CO)C(=O)NCC(=O)N[C@@H](CSC1=CC(=O)N(CCCC(=O)NCCOCCOCCOCCOCCC(=O)NCCNCCOC2CCC3(C)C(=CCC4C3CCC3(C)C(C(C)CCCC(C)C)CCC43)C2)C1=O)C(N)=O)[C@@H](C)CC (some centres unmarked) [MV HRC2] | – | – | IC50 (MV-IC323-EGFP): ~54 nM; presence in the brain / CNS localization [1]: a small fraction of the administered peptides was present; presence in the serum [1]: a small fraction of the administered peptides was present
3 | CC[C@H](C)[C@H](NC(=O)[C@H](C)NC(=O)[C@H](CC(N)=O)NC(=O)CNC(=O)[C@H](CC(C)C)NC(=O)[C@H](CC(N)=O)NC(=O)[C@@H](NC(=O)CNC(=O)[C@@H](NC(=O)[C@H](CC(=O)O)NC(=O)[C@H](CC(C)C)NC(=O)[C@H](CCCNC(=N)N)NC(=O)[C@H](CCC(=O)O)NC(=O)[C@H](CC(C)C)NC(=O)[C@H](CO)NC(=O)[C@@H](NC(=O)[C@@H]1CCCN1C(=O)[C@@H]1CCCN1C(C)=O)[C@@H](C)CC)C(C)C)[C@@H](C)O)C(=O)N[C@@H](C)C(=O)N[C@@H](CCCCN)C(=O)N[C@@H](CC(C)C)C(=O)N[C@@H](CCC(=O)O)C(=O)N[C@@H](CC(=O)O)C(=O)N[C@@H](C)C(=O)N[C@@H](CCCCN)C(=O)N[C@@H](CCC(=O)O)C(=O)N[C@@H](CC(C)C)C(=O)N[C@@H](CC(C)C)C(=O)N[C@@H](CCC(=O)O)C(=O)N[C@@H](CO)C(=O)N[C@@H](CO)C(=O)N[C@@H](CC(=O)O)C(=O)N[C@@H](CCC(N)=O)C(=O)N[C@H](C(=O)N[C@@H](CC(C)C)C(=O)N[C@@H](CCCNC(=N)N)C(=O)NCC(=O)N[C@@H](CO)C(=O)NCC(=O)N[C@@H](CO)C(=O)NCC(=O)N[C@@H](CSC1=CC(=O)N(CCCC(=O)NCCOCCOCCOCCOCCC(=O)NCCN(CCNC(=O)CCOCCOCCOCCOCCNC(=O)CCCN2C(=O)C=C(SC[C@H](NC(=O)CNC(=O)[C@H](CO)NC(=O)CNC(=O)[C@H](CO)NC(=O)CNC(=O)[C@H](CCCNC(=N)N)NC(=O)[C@H](CC(C)C)NC(=O)[C@@H](NC(=O)[C@H](CCC(N)=O)NC(=O)[C@H](CC(=O)O)NC(=O)[C@H](CO)NC(=O)[C@H](CO)NC(=O)[C@H](CCC(=O)O)NC(=O)[C@H](CC(C)C)NC(=O)[C@H](CC(C)C)NC(=O)[C@H](CCC(=O)O)NC(=O)[C@H](CCCCN)NC(=O)[C@H](C)NC(=O)[C@H](CC(=O)O)NC(=O)[C@H](CCC(=O)O)NC(=O)[C@H](CC(C)C)NC(=O)[C@H](CCCCN)NC(=O)[C@H](C)NC(=O)[C@@H](NC(=O)[C@H](C)NC(=O)[C@H](CC(N)=O)NC(=O)CNC(=O)[C@H](CC(C)C)NC(=O)[C@H](CC(N)=O)NC(=O)[C@@H](NC(=O)CNC(=O)[C@@H](NC(=O)[C@H](CC(=O)O)NC(=O)[C@H](CC(C)C)NC(=O)[C@H](CCCNC(=N)N)NC(=O)[C@H](CCC(=O)O)NC(=O)[C@H](CC(C)C)NC(=O)[C@H](CO)NC(=O)[C@@H](NC(=O)[C@@H]3CCCN3C(=O)[C@@H]3CCCN3C(C)=O)[C@@H](C)CC)C(C)C)[C@@H](C)O)[C@@H](C)CC)[C@@H](C)CC)C(N)=O)C2=O)CCOC2CCC3(C)C(=CCC4C3CCC3(C)C(C(C)CCCC(C)C)CCC43)C2)C1=O)C(N)=O)[C@@H](C)CC (some centres unmarked) [MV HRC4] | – | – | IC50 (MV-IC323-EGFP): ~55 nM
4 | Ac-VALDPIDISIVLNKIKSDLEESKEWIRRSNKILDSI-GSGSG-C(PEG4-Betulinic)-NH2 (SEQ ID NO: 14) [VIKI-PEG4-Betulinic] | 550 nM | > 1000 nM | –
5 | Ac-VALDPIDISIVLNKIKSDLEESKEWIRRSNKILDSI-GSGSG-C(PEG4-C20)-NH2 (SEQ ID NO: 12) [VIKI-PEG4-C20] | 75 nM | 900 nM | –
6 | Ac-VALDPIDISIVLNKIKSDLEESKEWIRRSNKILDSI-GSGSG-C(PEG4-C30)-NH2 (SEQ ID NO: 13) [VIKI-PEG4-C30] | 40 nM | 800 nM | –
7 | Ac-VALDPIDISIVLNKIKSDLEESKEWIRRSNKILDSI-GSGSG-C(PEG4-Ursolic)-NH2 (SEQ ID NO: 15) [VIKI-PEG4-Ursolic] | 200 nM | > 1000 nM | –
8 | Ac-VALDPIDISIVLNKIKSDLEESKEWIRRSNKILDSI-GSGSG-C(PEG4-palm)-NH2 (SEQ ID NO: 10) [VIKI-PEG4-palm] | 400 nM | > 1000 nM | –
9 | enfuvirtide | – | – | distribution in the CNS [3]: negligible distribution in the CNS
